Data as given in patent US20260327243A1, “SPIRO-HETEROCYCLIC INHIBITORS OF KRAS G12C MUTANT PROTEINS AND USES THEREOF” (AMGEN INC., priority 2023, published 2026).

Tests used:
KRAS^G12C = KRAS^G12C (Homo sapiens, UniProt P01116, C118A/G12C); test: Coupled Nucleotide Exchange Assay; format: biochemical; settings: GDP-bound KRAS (aa 1-169) G12C/C118A; 2 h compound pre-incubation; SOS-mediated exchange, 30 min; cRAF binding (AlphaLISA)
In short: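 GDP-bound His-tagged KRAS aa 1-169 (G12C/C118A) pre-incubated 2 h with compound in 25 mM HEPES pH 7.4, 10 mM MgCl2, 0.01% Triton X-100 (±0.1% BSA), then SOS (aa 564-1049) plus GTP added for 30 min. GST-cRAF RBD binding read by AlphaLISA; DMSO-normalized, 4-parameter fit gives IC50.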

MIA PaCa-2 cells = test: Cell Viability Assay, MIA PaCa-2; format: cell-based; settings: Homo sapiens, MIA PaCa-2, 72 h, human pancreatic carcinoma, CellTiter-Glo
Procedure: (§1) MIA PaCa-2 (human pancreatic carcinoma; ATCC CRL-1420) or A549 (human lung carcinoma; ATCC CCL-185) cells were cultured in RPMI 1640 medium containing 10% fetal bovine serum and 1×penicillin/streptomycin/L-glutamine. Cells were seeded in 384-well plates at a density of 1.67E+04 cells/mL and incubated at 37° C., 5% CO2, overnight. Serially-diluted compound or DMSO was added to the cells, and plates were incubated at 37° C., 5% CO2 for 72 h. Cell viability was measured using a CellTiter-Glo® Luminescent Cell Viability Assay kit (Promega) according to the manufacturer's protocol. The luminescence signal of treated samples was normalized to DMSO control, and data were analyzed using a 4-parameter logistic model to calculate IC50 values.
(§2) The following data (Table 3) categorizes the IC50 of each compound for inhibiting enzymatic activity of KRAS^G12C in the indicated cells.

A549 cells = test: Cell Viability Assay, A549; format: cell-based; settings: A549; human lung carcinoma; 72 h; CellTiter-Glo
Procedure: as §1, §2

KRAS^G12C, sequence (P01116 1-169 isoform P01116-2 G12C/C118A): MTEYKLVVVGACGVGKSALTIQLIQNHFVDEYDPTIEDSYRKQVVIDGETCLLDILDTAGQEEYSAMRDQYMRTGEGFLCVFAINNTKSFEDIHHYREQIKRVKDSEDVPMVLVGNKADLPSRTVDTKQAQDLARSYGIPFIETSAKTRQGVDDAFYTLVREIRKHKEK

| Structure (SMILES) | IC50 (KRAS^G12C) [nM] | IC50 (MIA PaCa-2 cells) [nM] | IC50 (A549 cells) [nM] |
| --- | --- | --- | --- |
| C=CC(=O)N1CCN([C@@H]2CN(c3cc(N4CCC5(CC4)OCCn4ncc(C)c45)nc(C(F)(F)F)n3)[C@@H]2C)CC1 [Compound 3-076, 1-(4-((2R,3R)-2-Methyl-1-(6-(3′-methyl-6′,7′-dihydrospiro[piperidine-4,4′-pyrazolo[5,1-c][1,4]oxazin]-1-yl)-2-(trifluoromethyl)pyrimidin-4-yl)azetidin-3-yl)piperazin-1-yl)prop-2-en-1-one] | 72 | 214 | > 5000 |
| C=CC(=O)N1CCN([C@@H]2CN(c3cc(N4CC[C@]5(C[C@H]4C)OCCn4ncc(C)c45)nc(C(F)(F)F)n3)[C@@H]2C)CC1 [Compound 3-077, 1-(4-((2R,3R)-1-(6-((2R,4R)-2,3′-dimethyl-6′,7′-dihydro-1H-spiro[piperidine-4,4′-pyrazolo[5,1-c][1,4]oxazin]-1-yl)-2-(trifluoromethyl)-4-pyrimidinyl)-2-methyl-3-azetidinyl)-1-piperazinyl)-2-propen-1-one] | 21 | 182 | > 5000 |
| C=CC(=O)N1CCN([C@@H]2CN(c3cc(N4CC[C@]5(C[C@H]4C)OCCn4ncc(C)c45)nc(C(F)F)n3)[C@@H]2C)CC1 [Compound 3-078, 1-(4-((2R,3R)-1-(2-(difluoromethyl)-6-((2R,4R)-2,3′-dimethyl-6′,7′-dihydro-1H-spiro[piperidine-4,4′-pyrazolo[5.1-c][1,4]oxazin]-1-yl)-4-pyrimidinyl)-2-methyl-3-azetidinyl)-1-piperazinyl)-2-propen-1-one] | 89 | 387 | > 5000 |
| C=CC(=O)N1CCN([C@@H]2CN(c3cc(N4CCC5(CC4)OCc4nccc(C)c45)nc(C(F)(F)F)n3)[C@@H]2C)CC1 [Compound 3-079, 1-(4-((2R,3R)-2-methyl-1-(6-(4-methyl-1′H,7H-spiro[furo[3,4-b]pyridine-5,4′-piperidin]-1′-yl)-2-(trifluoromethyl)-4-pyrimidinyl)-3-azetidinyl)-1-piperazinyl)-2-propen-1-one] | 81 | 180 | > 5000 |
| C=CC(=O)N1CCN([C@@H]2CN(c3cc(N4CCC5(CC4)OCC(CO)n4ncc(C)c45)nc(C(F)(F)F)n3)[C@@H]2C)CC1 (stereo partly drawn) [Compound 3-081, 1-(4-((2R,3R)-1-(6-(7′-(hydroxymethyl)-3′-methyl-6′,7′-dihydrospiro[piperidine-4,4′-pyrazolo[5,1-c][1.4]oxazin]-1-yl)-2-(trifluoromethyl)pyrimidin-4-yl)-2-methylazetidin-3-yl)piperazin-1-yl)prop-2-en-1-one] | 63 | 131 | > 5000 |
| C=CC(=O)N1CCN([C@@H]2CN(c3cc(N4CCC5(CC4)OCC(COC)n4ncc(C)c45)nc(C(F)(F)F)n3)[C@@H]2C)CC1 (stereo partly drawn) [Compound 3-082, 1-(4-((2R,3R)-1-(6-(7′-(methoxymethyl)-3′-methyl-6′,7′-dihydrospiro[piperidine-4,4′-pyrazolo[5,1-c][1,4]oxazin]-1-yl)-2-(trifluoromethyl)pyrimidin-4-yl)-2-methylazetidin-3-yl)piperazin-1-yl)prop-2-en-1-one] | 69 | 145 | > 5000 |
| C=CC(=O)N1CCN([C@@H]2CN(c3cc(N4CCC5(CC4)OCC(CF)n4ncc(C)c45)nc(C(F)(F)F)n3)[C@@H]2C)CC1 (stereo partly drawn) [Compound 3-083, 1-(4-((2R,3R)-1-(6-(7′-(fluoromethyl)-3′-methyl-6′,7′-dihydrospiro[piperidine-4,4′-pyrazolo[5,1-c][1,4]oxazin]-1-yl)-2-(trifluoromethyl)pyrimidin-4-yl)-2-methylazetidin-3-yl)piperazin-1-yl)prop-2-en-1-one] | 75 | 171 | > 5000 |
| C=CC(=O)N1CCN([C@@H]2CN(c3cc(N4CC[C@]5(C[C@H]4C)OCC(CF)n4ncc(C)c45)nc(C(F)F)n3)[C@@H]2C)CC1 (stereo partly drawn) [Compound 3-084, 1-(4-((2R,3R)-1-(2-(difluoromethyl)-6-((2R,4R)-7′-(fluoromethyl)-2,3′-dimethyl-6′,7′-dihydrospiro[piperidine-4,4′-pyrazolo[5,1-c][1,4]oxazin]-1-yl)pyrimidin-4-yl)-2-methylazetidin-3-yl)piperazin-1-yl)prop-2-en-1-one] | 176 | 172 | > 5000 |
| C=CC(=O)N1CCN([C@@H]2CN(c3cc(N4CCC5(CC4)c4c(C)ccnc4C4(COC4)C5F)nc(C(F)(F)F)n3)[C@@H]2C)CC1 (stereo partly drawn) [Compound 3-093, 1-(4-((2R,3R)-1-(6-(6′-fluoro-4′-methyl-1″H-dispiro[oxetane-3,7′-cyclopenta[b]pyridine-5′,4″- piperidin]-1″-yl)-2-(trifluoromethyl)-4-pyrimidinyl)-2-methyl-3-azetidinyl)-1-piperazinyl)-2-propen-1-one] | 107 | 271 | > 5000 |
| C=CC(=O)N1CCN([C@@H]2CN(c3cc(N4CCC5(CC4)OCCc4nccc(C)c45)nc(C(F)(F)F)n3)[C@@H]2C)CC1 [Compound 3-094, 1-(4-((2R,3R)-2-methyl-1-(6-(4′-methyl-7′,8′-dihydro-1H-spiro[piperidine-4,5′-pyrano[4.3-b]pyridin]-1-yl)-2-(trifluoromethyl)-4-pyrimidinyl)-3-azetidinyl)-1-piperazinyl)-2-propen-1-one] | 52 | 175 | > 5000 |
| C=CC(=O)N1CCN([C@@H]2CN(c3cc(N4CCC5(CC4)OC(C)(C)c4nccc(C)c45)nc(C(F)(F)F)n3)[C@@H]2C)CC1 [Compound 3-095] | 31 | 159 | > 5000 |
| C=CC(=O)N1CCN([C@@H]2CN(c3cc(N4CCC5(CC4)OC(C)(C)c4nccc(C)c45)nc(C(F)F)n3)[C@@H]2C)CC1 [Compound 3-096, 1-(4-((2R,3R)-1-(2-(difluoromethyl)-6-(4,7,7-trimethyl-1′H,7H-spiro[furo[3,4-b]pyridine-5,4′-piperidin]-1′-yl)-4-pyrimidinyl)-2-methyl-3-azetidinyl)-1-piperazinyl)-2-propen-1-one] | 69 | 267 | > 5000 |
| C=CC(=O)N1CCN([C@@H]2CN(c3cc(N4CCC5(CC4)OC[C@@H](COC)n4ncc(C)c45)nc(C(F)(F)F)n3)[C@@H]2C)CC1 [Compound 3-097, 1-(4-((2R,3R)-1-(6-((7′R)-7′-(methoxymethyl)-3′-methyl-6′,7′-dihydro-1H-spiro[piperidine-4,4′-pyrazolo[5,1-c][1.4]oxazin]-1-yl)-2-(trifluoromethyl)-4-pyrimidinyl)-2-methyl-3-azetidinyl)-1-piperazinyl)-2-propen-1-one] | 85 | 226 | > 5000 |
| C=CC(=O)N1CCN([C@@H]2CN(c3cc(N4CCC5(CC4)OC[C@H](COC)n4ncc(C)c45)nc(C(F)(F)F)n3)[C@@H]2C)CC1 [Compound 3-098] | 131 | 224 | > 5000 |
| C=CC(=O)N1CCN([C@@H]2CN(c3cc(N4CCC5(CC4)C(=O)C4(COC4)c4nccc(C)c45)nc(C(F)(F)F)n3)[C@@H]2C)CC1 [Compound 3-099, 4′-methyl-1″-(6-((2R,3R)-2-methyl-3-(4-(2-propenoyl)-1-piperazinyl)-1-azetidinyl)-2-(trifluoromethyl)-4-pyrimidinyl)dispiro[oxetane-3,7′-cyclopenta[b]pyridine-5′,4″-piperidin]-6′-one] | 41 | 165 | > 5000 |
| C=CC(=O)N1CCN([C@@H]2CN(c3cc(N4CCC5(CC4)OC[C@@H](C)n4ncc(C)c45)nc(C(F)(F)F)n3)[C@@H]2C)CC1 [Compound 3-100, 1-(4-((2R,3R)-1-(6-((7′R)-3′,7′-dimethyl-6′,7′-dihydro-1H-spiro[piperidine-4,4′-pyrazolo[5,1-c][1,4]oxazin]-1-yl)-2-(trifluoromethyl)-4-pyrimidinyl)-2-methyl-3-azetidinyl)-1-piperazinyl)-2-propen-1-one] | 40 | 155 | > 5000 |
| C=CC(=O)N1CCN([C@@H]2CN(c3cc(N4CCC5(CC4)OC[C@H](C)n4ncc(C)c45)nc(C(F)(F)F)n3)[C@@H]2C)CC1 [Compound 3-101, 1-(4-((2R,3R)-1-(6-((7′S)-3′,7′-dimethyl-6′,7′-dihydro-1H-spiro[piperidine-4,4′-pyrazolo[5.1-c][1,4]oxazin]-1-yl)-2-(trifluoromethyl)-4-pyrimidinyl)-2-methyl-3-azetidinyl)-1-piperazinyl)-2-propen-1-one] | 70 | 259 | > 5000 |
| C=CC(=O)N1CCN([C@@H]2CN(c3cc(N4CCC5(CC4)OC4(COC4)c4nccc(C)c45)nc(C(F)(F)F)n3)[C@@H]2C)CC1 [Compound 3-102, 1-(4-((2R,3R)-2-methyl-1-(6-(4′-methyl-1″H-dispiro[oxetane-3,7′-furo[3,4-b]pyridine-5′.4″-piperidin]-1″- yl)-2-(trifluoromethyl)-4-pyrimidinyl)-3-azetidinyl)-1-piperazinyl)-2-propen-1-one] | 23 | 77 | > 5000 |
